Earlier results in patent US20100069490A1 (priority 2006, published 2010).
Where a name gives a salt, the structure may show the parent alone.

Tests used:
rhino mouse model = conditions: applied locally
[1] = tested on: human polymorphonuclear leukocytes
[2] = in vivo and in vitro
lipase = conditions: pure or in combination with synergisms

SMILES	comedolitic activity (rhino mouse model)	inhibition of chemiotaxic and chemiokinetic response [1]	anti-inflammatory activity versus reference retinoids [2]	inhibition of hydrolysis of the triglycerides (lipase)	antibacterial activity (bacteria)
COc1ccc(-c2ccc3cc(C(=O)O)ccc3c2)cc1C12CC3CC(CC(C3)C1)C2 [Adapalene, 6-[3-(1-adamantyl)-4-methoxypheny]-2-naphthanoic acid]	comedolitic	inhibits the chemiotaxic and chemiokinetic response	superior to the reference retinoids	–	–
CCOC(=O)CC(O)(CC(=O)OCC)C(=O)OCC [Triethyl citrate, Triethyl-2-hydroxypropan-1,2,3-tricarboxylate]	–	–	–	able to inhibit hydrolysis of the triglycerides	has antibacterial activity
